Test results from US20260034112A1, “MULTI-CYCLIC IRAK1 AND IRAK4 INHIBITING COMPOUNDS AND USES THEREOF” (CHILDREN'S HOSPITAL MEDICAL CENTER, priority 2022, published 2026).
Values after ≈ are worked out from the molar mass of the structure shown. Values joined by “and” are separate entries in the source; they are usually repeats but may differ in a detail not shown here. Equal entries are not always repeated. Where two headings read alike, the source gives them in different places.

What was measured:
IRAK4 [1] = target: T1, IRAK4 (Homo sapiens, UniProt Q9NWZ3); experiment: Reaction Biology Kinase Assay service, kinase inhibition (IC50); type: biochemical
T1 construct: purchased Reaction Biology (contract assay service)
T1 sequence (Q9NWZ3 1-460): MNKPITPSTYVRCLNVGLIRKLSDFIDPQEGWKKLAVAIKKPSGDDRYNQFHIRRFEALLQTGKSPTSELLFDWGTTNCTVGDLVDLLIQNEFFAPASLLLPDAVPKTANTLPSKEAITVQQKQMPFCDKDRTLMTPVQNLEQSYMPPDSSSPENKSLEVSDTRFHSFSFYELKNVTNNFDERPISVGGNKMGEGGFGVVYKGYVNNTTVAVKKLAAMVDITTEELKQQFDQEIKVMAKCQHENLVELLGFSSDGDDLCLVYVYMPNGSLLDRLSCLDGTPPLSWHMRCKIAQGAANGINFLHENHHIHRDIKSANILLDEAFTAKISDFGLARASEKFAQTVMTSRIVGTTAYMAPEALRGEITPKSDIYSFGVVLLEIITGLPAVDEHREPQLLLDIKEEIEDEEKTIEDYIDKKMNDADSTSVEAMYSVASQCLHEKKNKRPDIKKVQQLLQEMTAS

[2] = Survival in xenograft mice versus emavusertib and gilteritinib (FIG. 28); conditions: compared to emavusertib (CA-4948) and gilteritinib
[3] = tested on: NF-kB activity upon TLR2 stimulation with PAM3CSK4 in THP1-Blue NF-kB SEAP reporter cells; experiment: THP1-Blue NF-kB SEAP reporter assay, TLR2 stimulation with PAM3CSK4; type: cell-based, human; conditions: for Suppression of TLR2-mediated activation of NF-kB: THP1 cells
[4] = tested on: NF-kB activity upon IL-1β stimulation (IL-1R) in THP1 NF-kB reporter cells; experiment: THP1 NF-kB reporter assay, IL-1β stimulation; type: cell-based, human; conditions: for Suppression of NF-kB signaling through the IL-1 receptor: result in words
IRAK1 [5] = target: T2, IRAK1 (Homo sapiens, UniProt P51617); experiment: Reaction Biology Kinase Assay service, kinase inhibition (IC50); type: biochemical; conditions: for IRAK4:IRAK1 potency ratio: calculated from the IRAK1 and IRAK4 IC50
T2 construct: purchased Reaction Biology (contract assay service)
T2 sequence (P51617 whole entry): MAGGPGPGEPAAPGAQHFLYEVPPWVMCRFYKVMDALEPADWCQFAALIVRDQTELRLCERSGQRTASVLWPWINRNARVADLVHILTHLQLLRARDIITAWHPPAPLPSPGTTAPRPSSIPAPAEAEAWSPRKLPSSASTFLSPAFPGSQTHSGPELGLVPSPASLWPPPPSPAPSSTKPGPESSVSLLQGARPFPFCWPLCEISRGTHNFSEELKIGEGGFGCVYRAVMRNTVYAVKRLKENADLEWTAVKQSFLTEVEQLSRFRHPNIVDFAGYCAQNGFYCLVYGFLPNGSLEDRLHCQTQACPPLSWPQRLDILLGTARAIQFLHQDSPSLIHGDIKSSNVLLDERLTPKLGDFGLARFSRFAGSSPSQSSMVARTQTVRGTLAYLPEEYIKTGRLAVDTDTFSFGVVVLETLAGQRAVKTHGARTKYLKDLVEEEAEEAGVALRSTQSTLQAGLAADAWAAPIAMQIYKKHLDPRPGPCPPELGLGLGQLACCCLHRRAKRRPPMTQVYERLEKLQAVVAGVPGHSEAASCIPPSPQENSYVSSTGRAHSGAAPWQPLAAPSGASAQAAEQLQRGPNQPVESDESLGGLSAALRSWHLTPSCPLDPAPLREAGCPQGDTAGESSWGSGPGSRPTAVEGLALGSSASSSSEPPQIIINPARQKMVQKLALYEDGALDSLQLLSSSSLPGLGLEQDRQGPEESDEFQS

[6] = Pharmacokinetic analysis, drug concentration after PO dosing
[7] = Plasma protein binding, mouse; type: in vitro ADME
[8] = Plasma protein binding, human; type: in vitro ADME
AML(1714) cells = experiment: Xenograft of AML(1714) cells pre-treated in vitro for 21 days; type: in vivo; conditions: AML(1714) pre-treated 500 nM 21 days, xenografted NSGS mice
PAMPA = type: in vitro ADME
[9] = Microsomal stability (Mic t½), rat; type: in vitro ADME
[10] = tested on: IRAK1 phosphorylation in MDS/AML cells; experiment: Immunoblotting for phospho-IRAK1; type: cell-based, human; conditions: THP1 and MDSL cells, 500 nM, 24 hours
IRAK1 [11] = target: T2, IRAK1; experiment: DiscoverX KINOMEscan Profiling Service, dissociation constant; type: binding
IRAK4 [12] = target: T1, IRAK4; experiment: as above; type: binding
[13] = Microsomal stability (Mic t½), human; type: in vitro ADME
THP1 cells = type: cell-based, human; conditions: AML cells versus vehicle
[14] = tested on: MDSL, THP1, OCIAML3, AML(1714), and AML(1294) cells; experiment: Annexin V staining (apoptosis); type: cell-based, human; conditions: 500 nM, 48 hours
Solubility = type: physicochemical
[15] = tested on: AML(64519), AML(0169), and MDS(76960) cells; experiment: Patient-derived AML/MDS xenografts treated orally; type: in vivo, NSGS mice; conditions: PO daily, Compound 14 30 mg/kg or Compound 15 100 mg/kg; for Median survival: NSGS mice engrafted with AML(0169), vehicle 29 days; for Leukemic cell engraftment in the PB: AML(64519), AML(0169), MDS(76960) at day 40, 29, 48, versus vehicle
[16] = Microsomal stability (Mic t½), mouse; type: in vitro ADME
[17] = tested on: healthy donor CD34+ cells; experiment: Myeloid and erythroid colony formation of healthy donor cells; type: cell-based, human; conditions: same concentrations as in the leukemic colony assay
[18] = tested on: MDS/AML cell lines and patient-derived samples; experiment: Differentiation: Wright-Giemsa stains and CD38 immunophenotyping; type: cell-based, human
[19] = tested on: MDS/AML cell lines and patient-derived samples; experiment: Clonogenic assay (colony formation in methylcellulose); type: cell-based, human; conditions: for Colony formation after in vitro exposure: AML(1714) cells, 500 nM for 21 days, then 250 live cells plated, 10 days
[20] = functional biochemical assay, read-out: IRAK4 IC50
[21] = THP1 NF-kB reporter cells, read-out: IC50 vs. IL-1β (NF-kB activation)
[22] = functional biochemical assay, read-out: IRAK1 IC50

SMILES: COc1cc2ncc(-c3nc(N[C@@H]4CCCNC4)c(F)cc3F)n2nc1C1CC1 [Compound 8]
- LOG (IRAK4) (IRAK4 [1]; Table 1, log of IRAK4 IC50): 0.19
- IC50 (IRAK4 [1]; Table 1, unit nM, read-out: Reaction Bio IRAK4 IC50): 1.54 nM
- Survival in xenograft mice [2]: enhanced survival
- IC50 ([3]; Homo sapiens, THP-1, Table 1, unit nM, read-out: THP-1 NFkB PAM IC50): 62.9 nM
- LOG (PAM) ([3]; Table 1, log of PAM IC50): 1.80
- IC50 ([4]; Homo sapiens, THP-1, Table 1, unit nM, read-out: THP-1 NFkB IL1B IC50): 58.7 nM
- LOG (IL1B) ([4]; Table 1, log of IL1B IC50): 1.77
- LOG (IRAK1) (IRAK1 [5]; Table 1, log of IRAK1 IC50): 1.43
- IC50 (IRAK1 [5]; Table 1, unit nM, read-out: Reaction Bio IRAK1 IC50): 27.2 nM

SMILES: CC1(c2ccc3ncc(-c4cccc(N[C@@H]5CCNC5)n4)n3c2)CC1 [Compound 15]
- Mean Free Drug Concentration ([6]; PO 100 mg/kg, 0.25 h): 263 nM
- Mean Total Drug Concentration ([6]; PO 100 mg/kg, 0.25 h): 3845 nM
- Mean Free Drug Concentration ([6]; PO 100 mg/kg, 0.5 h): 258 nM
- Mean Total Drug Concentration ([6]; PO 100 mg/kg, 0.5 h): 3764 nM
- Mean Free Drug Concentration ([6]; PO 100 mg/kg, 1 h): 207 nM
- Mean Total Drug Concentration ([6]; PO 100 mg/kg, 1 h): 3018 nM
- Mean Free Drug Concentration ([6]; PO 100 mg/kg, 2 h): 139 nM
- Mean Total Drug Concentration ([6]; PO 100 mg/kg, 2 h): 2034 nM
- Mean Free Drug Concentration ([6]; PO 100 mg/kg, 4 h): 109 nM
- Mean Total Drug Concentration ([6]; PO 100 mg/kg, 4 h): 1594 nM
- Mean Free Drug Concentration ([6]; PO 100 mg/kg, 8 h): 50 nM
- Mean Total Drug Concentration ([6]; PO 100 mg/kg, 8 h): 726 nM
- Mean Free Drug Concentration ([6]; PO 100 mg/kg, 24 h): 1 nM
- Mean Total Drug Concentration ([6]; PO 100 mg/kg, 24 h): 9 nM
- IC50 (IRAK4 [1]; [20]): 0.9 nM
- Plasma Prot Bind (% free - ms) [7]: 6.85 % free
- Plasma Prot Bind (% free - h) [8]: 2.46 % free
- Leukemic engraftment and AML development of pre-treated cells (AML(1714) cells): complete loss of leukemic engraftment and AML development
- PAMPA (PAMPA): 495 10^−6 cm/s
- Tier 1 Mic t½ (r) [9]: >30 min
- Tier 2 Mic t½ (r) [9]: 68 min
- Phosphorylation of IRAK1 [10]: inhibited auto-phosphorylation of IRAK1
- IC50 ([3]; THP1 NF-kB reporter cells, read-out: IC50 vs. Pam3CSK4 (TLR2-mediated NF-kB activation)): 6.3 nM and 4.5 nM
- Suppression of TLR2-mediated activation of NF-kB ([3]; at 100 nM): completely suppressed
- Kd (IRAK1 [11]): 2.2 nM
- Kd (IRAK4 [12]): 0.2 nM
- IC50 [4, 21]: 9.3 nM
- Suppression of NF-kB signaling through the IL-1 receptor ([4]; THP1 NF-kB reporter cells): completely suppress
- Tier 2 Mic t½ (h) [13]: 1.7 h
- Genes of the IRAK1/4 AML signature suppressed (THP1 cells): ~65%
- Apoptosis (Annexin V staining) [14]: more effective than Compound 14 at mediating apoptosis
- Solubility (Solubility): 31 mg/mL (≈ 93 mM)
- Median survival [15]: 40 days
- Leukemic cell engraftment in the PB [15]: significantly reduced
- Tier 2 Mic t½ (m) [16]: 29 min
- Erythroid colony formation of healthy donor CD34+ cells [17]: increased erythroid colony formation
- Myeloid cell colonies of healthy donor CD34+ cells [17]: only modesty inhibited
- Morphology (Wright-Giemsa staining) ([18]; 500 nM, 12 days): heterogeneous morphologies and size and increased cytoplasmic to nuclear ratios
- Expression of CD38 ([18]; 12 days of treatment, versus Compound 14 or vehicle): greater expression of CD38
- IRAK4:IRAK1 potency ratio (IRAK1 [5]): 36
- IC50 (IRAK1 [5]; [22]): 32 nM
- Colony formation after in vitro exposure [19]: significantly diminished colony formation
- Suppression of leukemia progenitor cell colony formation ([19]; MDS/AML cell lines and patient-derived samples, 250 nM or 1 μM, complete in all samples except THP1): complete suppression of leukemia progenitor cell colony formation

SMILES: COc1ccc2ncc(-c3cccc(N[C@@H]4CCCNC4)n3)n2c1 [Compound 14]
- Mean Free Drug Concentration ([6]; PO 30 mg/kg, 0.25 h): 336 nM
- Mean Total Drug Concentration ([6]; PO 30 mg/kg, 0.25 h): 869 nM
- Mean Free Drug Concentration ([6]; PO 30 mg/kg, 0.5 h): 360 nM
- Mean Total Drug Concentration ([6]; PO 30 mg/kg, 0.5 h): 932 nM
- Mean Free Drug Concentration ([6]; PO 30 mg/kg, 1 h): 309 nM
- Mean Total Drug Concentration ([6]; PO 30 mg/kg, 1 h): 801 nM
- Mean Free Drug Concentration ([6]; PO 30 mg/kg, 2 h): 217 nM
- Mean Total Drug Concentration ([6]; PO 30 mg/kg, 2 h): 562 nM
- Mean Free Drug Concentration ([6]; PO 30 mg/kg, 4 h): 101 nM
- Mean Total Drug Concentration ([6]; PO 30 mg/kg, 4 h): 262 nM
- Mean Free Drug Concentration ([6]; PO 30 mg/kg, 8 h): 30 nM
- Mean Total Drug Concentration ([6]; PO 30 mg/kg, 8 h): 78 nM
- Mean Free Drug Concentration ([6]; PO 30 mg/kg, 24 h): 0 nM
- Mean Total Drug Concentration ([6]; PO 30 mg/kg, 24 h): 0 nM
- IC50 (IRAK4 [1]; [20]): 5 nM
- Plasma Prot Bind (% free - ms) [7]: 38.6 % free
- Plasma Prot Bind (% free - h) [8]: 26.5 % free
- Leukemic engraftment and AML development of pre-treated cells (AML(1714) cells): only partially suppressed
- PAMPA (PAMPA): 746 10^−6 cm/s
- Tier 1 Mic t½ (r) [9]: >30 min
- Phosphorylation of IRAK1 [10]: did not affect phosphorylation of IRAK1
- Suppression of TLR2-mediated activation of NF-kB ([3]; at 5 μM): ~80%
- Kd (IRAK1 [11]): 150 nM
- Kd (IRAK4 [12]): 5 nM
- IC50 [4, 21]: 227 nM
- Suppression of NF-kB signaling through the IL-1 receptor ([4]; THP1 NF-kB reporter cells): completely suppress
- Effect on genes of the IRAK1/4 AML signature (THP1 cells): unremarkable effect
- Solubility (Solubility): >48 mg/mL
- Median survival [15]: 33 days
- Leukemic cell engraftment in the PB [15]: did not significantly suppress
- Tier 2 Mic t½ (m) [16]: N.D./25/N.D. min
- IRAK4:IRAK1 potency ratio (IRAK1 [5]): 100
- IC50 (IRAK1 [5]; [22]): > 500 nM
- Colony formation after in vitro exposure [19]: only partially suppressed
- Reduction in leukemia progenitor cell colony formation ([19]; MDS/AML cell lines, 250 nM or 1 μM): 60-75%
- Reduction in leukemia progenitor cell colony formation ([19]; all MDS/AML cell lines and patient-derived samples, 250 nM or 1 μM): approximately 75%
- Reduction in leukemia progenitor cell colony formation ([19]; patient-derived AML samples, 250 nM or 1 μM): 80-85%
